Measured values from patent publication US7173004B2, “Macrocyclic isoquinoline peptide inhibitors of hepatitis C virus” (Bristol-Myers Squibb Company, priority 2003, dated 2007).

Assays:
HCV = details: cited from earlier work
HCV replicon [1] = experiment: Three-drug combination studies in HCV replicon system, combination index; type: cell-based; details: mono-therapy in the three-drug combination experiment, HCV replicon, read-out: NS5A inhibitor EC50
Method: […] an NS5B replicase inhibitor (compound 2006; WO 03/010141), were tested in 2-drug combinations with the macrocyclic HCV NS3 protease inhibitor compound 28. In addition, compound 28 was also tested in 3-drug combinations with the NS5A and NS5B inhibitors.
For the experiments shown in Tables 8 and 9, inhibitors were tested at eleven concentrations each. 200× stock solutions of each inhibitor concentration were prepared by 2- or 3-fold dilution in DMSO prior to addition to cells/media. The drugs were tested as monotherapies and in combination with the NS3 protease inhibitor at various concentration ratios. Cells were exposed to compounds for 4 days and the amount of HCV inhibition was then determined using the FRET assay. The potential cytotoxicities of these combined agents were also analyzed in parallel by Alamar Blue staining. […] The degree of antagonism, additivity, or synergy was determined over a range of drug concentrations, and combination response curves were fit to assess the antiviral effects of the drug treatment combinations. The concentration ratios were analyzed using the method of Chou (Chou, Ting-Chao, and Rideout (Editors), (1991) Synergism and Antagonism in Chemotherapy, P. 61–101, Academic Press, New York). Tables 8 and 9 report the estimated EC50 values for the compounds tested, as well as the combination indices (CI). All estimates were computed using SAS Proc NLIN, and a two-parameter logistic. All combination indices were tested for departure from additivity using isobologram methods. Asymptotic confidence intervals were also calculated for each of the combination indices. These intervals are used to test for departure from additivity by comparing the bounds to one—a lower bound of the interval greater than 1 indicates antagonism, an upper bound of less than 1 indicates synergism, and a value of 1 contained in the interval indicates additivity.
Compound 28 was also tested in 3-drug combination experiments with the NS5A inhibitor and the NS5B inhibitor (Table 12). The starting concentrations for the mono-therapies consisted of a 0.667 μM solution of the NS5A inhibitor, a 0.3 μM solution of compound 28, and a 2.5 μM solution of the NS5B inhibitor. The starting concentration for the triple combination contained a mixture of ⅓ of each of the above concentrations. Dose response curves for all three mono-therapies and the triple combination therapy were obtained using 3-fold dilutions, and data analysis was carried out as described above for combination index experiments.

HCV replicon [2] = experiment: Two-drug combination matrix studies in HCV replicon system, Universal Response Surface Approach (URSA); type: cell-based; details: Hepatitis C virus, matrix study with NS5A inhibitor, URSA estimate (Table 10)
Method: In addition to the combination index approach, above, the Universal Response Surface Approach (URSA) was also used to assess the antiviral effects of combinations of NS5A or NS5B inhibitors with the NS3 protease inhibitor. The experiments were conducted in a matrixed format with 8 concentrations of NS3 protease inhibitor crossed against 10 concentrations of NS5A or NS5B inhibitor on each of three plates. 200× stock solutions of each inhibitor concentration were prepared by 3-fold dilution in DMSO. Effects on replication were assessed in the HCV replicon system as described above. The data was analyzed using the URSA as described in Greco, Park and Rustum (Greco, Park, Sook, and Rustum (1990) Application of a New Approach for the Quantitation of Drug Synergism to the Combination of cis-Diamminedichloroplatinum and 1-β-D-Arabinofuranosylcytosine, Cancer Research, 50, 5318–5327). The interaction of the two drugs was assessed by using non-linear regression with a bisection algorithm. Seven parameters were estimated. These include the minimal response or response in the absence of drug, the maximal response or response in the presence of infinite drug, EC50's for the two drugs, slope parameters for the two drugs, and the drug interaction parameter α which provides the assessment of synergism, antagonism or additivity. Additivity is implied when α is equal to zero, synergy if the interaction parameter is larger than zero, and antagonism when the interaction parameter is less than zero. The confidence interval for the interaction parameter is also presented. This interval is used to test for departure from additivity by comparing the bounds to zero—a lower bound of the interval greater than zero indicates synergy, an upper bound of less than zero indicates antagonism, and a value of zero contained in the interval indicates additivity.

[3] = target: T1, HCV NS3/4A protease complex, BMS strain (genotype 1a) (UniProt P27958, C1454S/C1711G, species not given/STRAIN_BMS); experiment: Recombinant HCV NS3/4A protease complex FRET peptide assay, BMS strain; type: biochemical; details: NS3/4A BMS Strain; activity range classes
T1 construct: b1001: DNA encoding the recombinant HCV NS3/4A protease complex (amino acids 1027 to 1711) ... a three-lysine solubilizing tail was added at the 3′-end of the NS4A coding region; fused on or other part: Three-lysine solubilising tail at the C-terminus of NS4A; A His tag is implied by the pET21b vector and Ni-NTA purification
From the text: Recombinant HCV NS3/4A Protease Complex FRET Peptide Assay
The purpose of this in vitro assay was to measure the inhibition of HCV NS3 protease complexes, derived from the BMS strain, H77C strain or J416S strain, as described below, by compounds of the present invention. This assay provides an indication of how effective compounds of the present invention would be in inhibiting HCV proteolytic activity.
Serum from an HCV-infected patient was obtained from Dr. T. Wright, San Francisco Hospital. An engineered full-length cDNA (compliment deoxyribonucleic acid) template of the HCV genome (BMS strain) was constructed from DNA fragments obtained by reverse transcription-PCR (RT-PCR) of serum RNA (ribonucleic acid) and using primers selected on the basis of homology between other genotype 1a strains. From the determination of the entire genome sequence, a genotype 1a was assigned to the HCV isolate according to the classification of Simmonds et al. (See P Simmonds, K A Rose, S Graham, S W Chan, F McOmish, B C Dow, E A Follett, P L Yap and H Marsden, J. Clin. Microbiol., 31(6), 1493–1503 (1993)). […] The infectious clones, H77C (1a genotype) and J4L6S (1b genotype) were obtained from R. Purcell (NIH) and the sequences are published in Genbank (AAB67036, see Yanagi, M., Purcell, R. H., Emerson, S. U. and Bukh, J. Proc. Natl. Acad. Sci. U.S.A. 94(16), 8738–8743 (1997); AF054247, see Yanagi, M., St Claire, M., Shapiro, M., Emerson, S. U., Purcell, R. H. and Bukh, J, Virology 244 (1), 161–172. (1998)).
The H77C and J4L6S strains were used for production of recombinant NS3/4A protease complexes. DNA encoding the recombinant HCV NS3/4A protease complex (amino acids 1027 to 1711) for these strains were manipulated as described by P. Gallinari et al. (see Gallinari P, Paolini C, Brennan D, Nardi C, Steinkuhler C, De Francesco R. Biochemistry. 38(17):5620–32, (1999)). Briefly, a three-lysine solubilizing tail was added at the 3′-end of the NS4A coding region. The cysteine in the P1 position of the NS4A-NS4B cleavage site (amino acid 1711) was changed to a glycine to avoid the proteolytic cleavage of the lysine tag. Furthermore, a cysteine to serine mutation was introduced by PCR at amino acid position 1454 to prevent the autolytic cleavage in the NS3 helicase domain. The variant DNA fragment was cloned in the pET21b bacterial expression vector (Novagen) and the NS3/4A complex was expressed in Escherichia coli strain BL21 (DE3) (Invitrogen) following the protocol described by P. Gallinari et al. (see Gallinari P, Brennan D, Nardi C, Brunetti M, Tomei L, Steinkuhler C, De Francesco R., J. Virol. 72(8):6758–69 (1998)) with modifications. Briefly, NS3/4A expression was induced with 0.5 mM Isopropyl β-D-1-thiogalactopyranoside (IPTG) for 22 hr at 20° C. A typical fermentation (10 L) yielded approximately 80 g of wet cell paste. The cells were resuspended in lysis buffer (10 mL/g) consisting of 25 mM N-(2-Hydroxyethyl)piperazine-N′-(2-Ethane Sulfonic acid) (HEPES), pH7.5, 20% glycerol, 500 mM Sodium Chloride (NaCl), 0.5% Triton-X100, 1 microgram/milliliter (“μg/mL”) lysozyme, 5 mM Magnesium Chloride (MgCl2), 1 ug/ml DnaseI, 5 mM β-Mercaptoethanol (βME), Protease inhibitor—Ethylenediamine Tetraacetic acid (EDTA) free (Roche), homogenized and incubated for 20 mins at 4° C. The homogenate was sonicated and clarified by ultra-centrifugation at 235000 g for 1 hr at 4° C. Imidazole was added to the supernatant to a final concentration of 15 mM and the pH adjusted to 8.0. The crude protein extract was loaded on a Nickel-Nitrilotriacetic acid (Ni-NTA) column pre-equilibrated with buffer B (25 mM HEPES, pH8.0, 20% glycerol, 500 mM NaCl, 0.5% Triton-X100, 15 mM imidazole, 5 mM βME). The sample was loaded at a flow rate of 1 mL/min. The column was washed with 15 column volumes of buffer C (same as buffer B except with 0.2% Triton-X100). The protein was eluted with 5 column volumes of buffer D (same as buffer C except with 200 mM Imidazole). […]

[4] = from C=CCCCSC[C@@H](NC(=O)OC(C)(C)C)C(=O)N1C[C@H](Oc2nccc3cc(OC)ccc23)C[C@H]1C(=O)N[C@]1(C(=O)OCC)C[C@H]1C=C; rcm bond; Grubbs II (tricyclohexylphosphine[1,3-bis(2,4,6-trimethylphenyl)-4,5-dihydroimidazol-2-ylidene][benzylidene]ruthenium(IV) dichloride); 1,2-dichloroethane; 3.48 mM; 83.0 °C; 16.0 h

alpha-interferon and ribavirin [reference compound]
sustained efficacy (HCV; HCV patients): 40 % of patients

O=C(Nc1ccc(C2S/C(=N\c3ccc(N4CCOCC4)cc3)N(Cc3cccnc3)C2=O)cc1)[C@@H]1CCCN1C(=O)CCc1ccccc1 (stereo partly shown) [NS5A inhibitor, reference compound]
EC50 (HCV replicon [1]; Hepatitis C virus): 5 nM | EC50 (HCV replicon [1]): 9 nM | EC50 (HCV replicon [2]): 8 nM

COc1ccc2c(O[C@@H]3C[C@H]4C(=O)N[C@]5(C(=O)O)C[C@H]5/C=C\COCC[C@H](NC(=O)OC(C)(C)C)C(=O)N4C3)nccc2c1 [Compound 140]
IC50 [3]: 5 to 50 µM

CCOC(=O)[C@@]12C[C@H]1C=CCCCSC[C@@H](NC(=O)OC(C)(C)C)C(=O)N1C[C@H](Oc3nccc4cc(OC)ccc34)C[C@H]1C(=O)N2
ring closure, yield of all isomers [4]: 73%

pegylated alpha-interferon
efficacy as monotherapy compared with unmodified alpha-interferon (HCV; clinical results, monotherapy): superior to unmodified alpha-interferon
